Measurements published in PubChem BioAssay AID787 (PCMD, 2007).
Activity calls are given as the source filed them. No rule for the calls is given here.

Target: Complement C1s subcomponent (Homo sapiens) (UniProt P09871)
Experiment: concentration-response of complement C1s inhibitors – biochemical, dose response (AID 787)
Conditions: purified C1s enzyme, fluorogenic substrate, FU read-out

Sequence of Complement C1s subcomponent (Homo sapiens) (P09871 16-437 limits assumed): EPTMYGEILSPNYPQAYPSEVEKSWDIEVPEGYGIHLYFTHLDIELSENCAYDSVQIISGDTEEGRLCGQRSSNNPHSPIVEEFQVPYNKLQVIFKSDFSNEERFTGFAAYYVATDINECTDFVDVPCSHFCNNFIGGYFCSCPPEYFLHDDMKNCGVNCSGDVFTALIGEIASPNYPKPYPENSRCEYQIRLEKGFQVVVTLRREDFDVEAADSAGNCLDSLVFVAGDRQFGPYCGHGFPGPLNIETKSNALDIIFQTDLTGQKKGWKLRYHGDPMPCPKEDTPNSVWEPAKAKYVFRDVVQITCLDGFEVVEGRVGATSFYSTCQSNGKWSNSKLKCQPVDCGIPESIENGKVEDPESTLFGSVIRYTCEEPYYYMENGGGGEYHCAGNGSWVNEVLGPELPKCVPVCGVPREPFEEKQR
Sequence of Complement C1s subcomponent (Homo sapiens) (P09871 438-688 limits assumed): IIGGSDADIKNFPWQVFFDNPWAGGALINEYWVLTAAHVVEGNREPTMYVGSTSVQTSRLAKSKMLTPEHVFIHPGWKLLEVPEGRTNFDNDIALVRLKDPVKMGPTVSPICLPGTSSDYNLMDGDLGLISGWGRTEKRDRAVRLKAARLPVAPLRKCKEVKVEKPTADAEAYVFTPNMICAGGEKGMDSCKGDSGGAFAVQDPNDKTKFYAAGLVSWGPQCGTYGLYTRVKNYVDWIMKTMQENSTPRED

Row | SMILES | IC50
1 | CCOc1ccc(N2C(=O)CC(N3CCN(c4ccccc4F)CC3)C2=O)cc1 (centres undefined) | > 50 µM (inactive)
2 | O=C(Oc1ccc(Cl)cc1N1C(=O)CCC1=O)c1ccco1 | > 50 µM (inactive)
3 | O=C1CCCC(O)=C1C=NCCc1ccccc1 | > 50 µM (inactive)
4 | CCOC(=O)N1CC=C2C(C#N)=C(N)C(C#N)(C#N)[C@H](c3ccccc3OCC)[C@H]2C1 | > 50 µM (inactive)
5 | O=C1CCCC2=C1C1(CCCCC1)N=C(Nc1nc3ccccc3o1)N2 | > 50 µM (inactive)

Other lines, results leading:

Row | IC50 | SMILES
6 | > 50 µM (inactive) | Cc1cccc(COc2ccc(/C(O)=C3\C(=O)C(=O)N(CCN(C)C)C3c3ccncc3)cc2)c1 (centres undefined)
7 | > 50 µM (inactive) | COc1ccc(NC(=O)CSC2=C(C#N)C(c3ccco3)C3=C(CCCC3=O)N2)c(OC)c1 (centres undefined)
8 | > 50 µM (inactive) | COC(=O)Cc1[nH]nc2c1C1(C(=O)N(Cc3ccccc3)c3ccccc31)C(C#N)=C(N)O2 (centres undefined)
9 | > 50 µM (inactive) | COc1cccc(C2=CC(c3cccc(OC)c3OC)n3nnnc3N2)c1 (centres undefined)
